Data from patent EP0714662A1, “ANTIALLERGIC AGENT” (MEIJI MILK PRODUCTS COMPANY LIMITED, priority 1993, dated 1995).
Ends that are not written are not given here. Peptide text beside a SMILES is read from it.

What follows are compounds tested on serum IgE from 15 patients suffering from mite rhinallergosis (assay: Enzyme antibody assay: binding of solid phase Der p II overlapping peptides to patients' serum IgE). Details: serum from each of 15 patients.
Design: species or system human
Method: The complete primary structure of the amino acid sequence of a Der p II protein was determined after cDNA was isolated therefrom by Chua et al. (Int. Arch. Allergy Appl. Immunol. 91: 118-123, 1990). Based on the amino acid sequence, peptides were synthesized on a solid phase using a multipin system (manufactured by Chiron) and coupling reagents, Fmoc-amino acid and DCC (dicyclohexyl carbodiimide) (Geysen, H.M. et al., Proc. Natl. Acad. Sci. USA. 81:3998-4002, 1984). Sixty-one kinds of peptides were synthesized, the first peptide comprising the first through ninth amino acids of the N-terminal of Der p II, the second peptide comprising the third through eleventh amino acids of the N-terminal, and the third through 61st peptides being prepared in an analogous manner.
The RAST (radio-allergosorbent test, Pharmacia) values as determined using antigens from two mite species, Dermatophagoides pteronyssinus (Der p) and Dermatophagoides farina (D f), were class 4. Each of the above-mentioned 61 synthesized peptides and 100 µl of each patient's serum were placed in a 96-well plate and reacted overnight at room temperature. Synthesized peptides in a solid phase were washed three times to remove the patient's serum using a washing solution of 0.05% Tween 20/0.15 M NaCl/Tris-HCl (pH 7.5). 100 µl of galactosidase-labelled anti-human IgE antibodies (Pharmacia) were diluted to 40-fold using a 1:9 diluted Block-ace (product of Dainippon Seiyaku K.K.). The diluted solution was added to a 96-well plate, each synthesized solid phase peptide was also added, and reaction, was allowed to proceed overnight at room temperature. The synthesized solid phase peptide was washed with the same washing solution five times. Thereafter, to a 96-well black plate (manufactured by Dainippon Seiyaku K.K.), were added 200 µl of a solution of 0.1 mM 4-methylumbelliferyl-β-D-galactopyranoside in 0.1% bovine serum albumin/0.1 M NaCl/1 mM MgCl₂/0.1% sodium azide/10 mM phosphate buffer (pH 7.0). Subsequently, the synthesized solid phase peptide was added and reacted for 2 hours at 37°C. After completion of reaction, 100 µl of a reaction terminating solution (0.1 M glycin/NaOH, pH 10.3) were added to each well, and absorbance was measured using a fluorospectrophotometer for 96-well plates (Manufactured by Flow). This reaction was studied for each of 15 patients.

Row | Compound | binding reactions with IgE antibodies
1 | VVTVKVMGD [synthesized peptide No. 53] | exhibited binding reactions with IgE antibodies
2 | KIEIKASID [synthesized peptide No. 26] | exhibited binding reactions with IgE antibodies
3 | FQLEAVFEA [synthesized peptide No. 18] | exhibited binding reactions with IgE antibodies
4 | IATHAKIRD [synthesized peptide No. 61] | exhibited binding reactions with IgE antibodies
5 | KCPLVKGQQ [synthesized peptide No. 39] | exhibited binding reactions with IgE antibodies
6 | ANQNTKTAK [synthesized peptide No. 22] | exhibited binding reactions with IgE antibodies
7 | NVPKIAPKS [synthesized peptide No. 47] | exhibited binding reactions with IgE antibodies
8 | PKSENVVVT [synthesized peptide No. 50] | exhibited binding reactions with IgE antibodies
9 | SIDGLEVDV [synthesized peptide No. 29] | exhibited binding reactions with IgE antibodies
10 | SENVVVTVK [synthesized peptide No. 51] | exhibited binding reactions with IgE antibodies

Each compound was assayed on basophils of a patient (assay: Histamine release inhibition test with peptide D, blood of egg allergy patients). Details: peptide D 1.4 mg/ml.
Type: cell-based, human
Method: The histamine release inhibition test was performed using a histamine kit "Eiken" manufactured by Eiken Kagaku K.K. Briefly, heparinized peripheral blood was collected from each patient, and the blood was diluted to a 1:1 ratio using a buffer for release tests. Equivalent amounts of a diluted peptide D (which had been diluted to double the density of an inhibitory concentration using a buffer for release tests) and a diluted blood from a patient (which had been diluted to a 1:1 ratio) were mixed and allowed to react overnight at 4°C. Subsequently, fifty µl of peptide B or OVA diluted with a buffer for release was mixed with 100 µl of the patient's blood with which peptide D was reacted. […] After the histamine tubes were incubated for 16 to 24 hours, the solution was drawn off using an aspirator, and measured using a gamma scintillation counter. The amount of total histamine was determined using a supernatant sample obtained by adding 1 ml of purified water to 50 µl of whole blood, freezing and thawing, then centrifugally separating. […] The ratio of the difference with respect to the total amount of histamine was calculated and taken as a histamine release ratio. Inhibition ratio (%) was calculated by the following equation: %Inhibition = {1-(histamine release ratio in the presence of an inhibitory peptide)/(histamine release ratio in the absence of an inhibitory peptide)} x 100 [formula] […]

Row | Compound | suppression ratio of histamine release caused by untreated OVA
11 | EFRADHPFLF [peptide D] | 93%

Same assay, conditions: peptide D at a concentration of not less than 1.4 mg/ml

Row | Compound | suppression of histamine release caused by stimulant peptide B
12 | EFRADHPFLF [peptide D] | at least 85%

These compounds were tested on serum IgE of cryptomeria pollinosis patients (assay: Enzyme antibody assay: binding of solid phase Cry j II overlapping peptides to patients' serum IgE). Details: not given.
Design: species or system human
Source text: Presently, however, the C-terminal amino acids are unknown. Therefore, overlapping peptides were synthesized on a solid phase using an Fmoc-amino acid and multipin system (manufactured by Chiron) so as to cover all the proteins consisting of 460 amino acid residues (Sequence No. 1) other than the N-terminal moiety. The first peptide comprises the first through ninth amino acids in the N-terminal moiety of a Cry j II protein. The second peptide comprises the third through eleventh amino acids in the N-terminal moiety.
Subsequently, using a washing solution of 0.05% Tween 20/0.15 M NaCl/Tris-HCl (pH 7.5), synthesized solid phase peptides were washed three times to remove the patient's serum. Using a 1:9 diluted Block-ace (product of Dainippon Seiyaku K.K.), 100 µl of galactosidase-labelled anti-human IgE antibodies (Pharmacia) were diluted to 40-fold. The diluted solution was added to a 96-well plate, and then each synthesized solid phase peptide was also added. Reaction was allowed to proceed overnight at room temperature. The synthesized solid phase peptide was washed with the same washing solution five times. Thereafter, 200 µl of a solution of 0.1 mM 4-methylumbelliferyl-β-D-galactopyranoside in 0.1% bovine serum albumin/0.1 M NaCl/1 mM MgCl₂/0.1% sodium azide/10 mM phosphate buffer (pH 7.0) were added to a 96-well black plate (manufactured by Dainippon Seiyaku K.K.). Subsequently, the synthesized solid phase peptide was added and reacted for 2 hours at 37°C.

Row | Compound | reaction with serum IgE of cryptomeria pollinosis patients
13 | SASACQNQR [Ser-Ala-Ser-Ala-Cys-Gln-Asn-Gln-Arg] | reacted serum IgE of cryptomeria pollinosis patients
14 | C[C@@H](O)[C@H](NC(=O)[C@H](CS)NC(=O)[C@H](CC(N)=O)NC(=O)[C@@H]1CCCN1)C(=O)N[C@@H](CC(N)=O)C(=O)N[C@@H](CCCCN)C(=O)N[C@@H](CS)C(=O)N[C@@H](Cc1c[nH]cn1)C(=O)NCC(=O)O [Pro-Asn-Cys-Thr-Asn-Lys-Cys-His-Gly] (H-PNCTNKCHG-OH) | reacted serum IgE of cryptomeria pollinosis patients
15 | NLFFNGPCQ [Asn-Leu-Phe-Phe-Asn-Gly-Pro-Cys-Gln] | reacted serum IgE of cryptomeria pollinosis patients
16 | KWVNGREIC [Lys-Trp-Val-Asn-Gly-Arg-Glu-Ile-Cys] | reacted serum IgE of cryptomeria pollinosis patients
17 | QCKWVNGRE | reacted serum IgE of cryptomeria pollinosis patients
18 | C[C@H](NC(=O)[C@H](CO)NC(=O)[C@H](C)NC(=O)[C@H](CO)NC(=O)[C@@H](NC(=O)[C@@H](N)CS)[C@@H](C)O)C(=O)N[C@@H](CS)C(=O)N[C@@H](CCC(N)=O)C(=O)N[C@@H](CC(N)=O)C(=O)O [Cys-Thr-Ser-Ala-Ser-Ala-Cys-Gln-Asn] (H-CTSASACQN-OH) | reacted serum IgE of cryptomeria pollinosis patients
